One data set relates to mice. In words: Colonic compliance in awake mice. The format is in vivo, mouse. Conditions: awake healthy mice. The protocol:
Noxious colorectal distension (CRD) triggers the visceromotor response (VMR), a nociceptive brainstem reflex consisting of contraction of abdominal muscles, which can be monitored by electromyography. This approach allows assessment of visceral sensitivity in awake mice (Castro, J. et al., Br. J. Pharmacol. 2017, 175(12): 2384-2398). To examine protease-induced hy-persensitivity, a protease mixture (10 nM trypsin+100 nM NE+100 nM CS) or vehicle (saline) (100 μL) was instilled into the colon (enema) of healthy mice. After 15 min, the VMR was measured in response to graded CRD (20-80 mm Hg) with a barostat balloon. In vehicle-treated mice, CRD induced a graded VMR (FIG. 9I). […] Because alterations in the compliance of the colon can alter VMR to CRD, the pressure/volume relationship was measured at all distending pressures. Compliance of the colon was unaffected by the protease mixture or I-343 (FIGS. 21E and F). […]
Electromyography (EMG) of abdominal muscles was used to monitor VMR to CRD (Eichel, K. et al., Nat. Cell Biol. 2016, 18(3): 303-310). […] The EMG signal was recorded (NL100AK headstage), amplified (NL104), filtered (NL 125/126, Neurolog, Digitimer Ltd, bandpass 50-5000 Hz), and digitized (CED 1401, Cambridge Electronic Design) for off-line analysis using Spike2 (Cambridge Electronic Design). […]

The target of data set [1] is T1, PAR2 (Homo sapiens, UniProt P55085).
T1 construct: HT-29 cells and HEK293 cells, which express endogenous PAR2; endogenous in cells; host or cells: HT-29
T1 sequence (P55085 26-397): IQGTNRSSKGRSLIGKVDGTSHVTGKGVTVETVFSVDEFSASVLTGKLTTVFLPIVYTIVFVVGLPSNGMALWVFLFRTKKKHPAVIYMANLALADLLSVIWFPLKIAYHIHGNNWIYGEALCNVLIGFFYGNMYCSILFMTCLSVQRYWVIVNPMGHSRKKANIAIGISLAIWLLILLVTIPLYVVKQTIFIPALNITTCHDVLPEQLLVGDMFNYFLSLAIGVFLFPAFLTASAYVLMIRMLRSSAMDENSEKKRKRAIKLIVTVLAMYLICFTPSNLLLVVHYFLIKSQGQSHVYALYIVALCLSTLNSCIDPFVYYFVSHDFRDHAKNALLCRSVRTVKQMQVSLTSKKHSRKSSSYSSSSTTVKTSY
As to the kind of experiment: IP1 accumulation assay in HEK293 cells (endogenous PAR2). The class given is cell-based. The settings on record: trypsin (30 nM). As to the method: Inhibition of PAR2 signaling with known PAR2 inhibitor I-343 (FIG. 14A) was investigated in HT-29 cells and HEK293 cells, which express endogenous PAR2, and in KNRK cells expressing human (h) PAR2. Accumulation of inositol phosphate-1 (IP1) was measured in response to the PAR2-selective agonist 2-Furoyl-LIGRLO-NH2 (2F), an analogue of the trypsin-exposed tethered ligand, or trypsin.
KNRK-hPAR2, KNRK, HEK293, or HT-29 cells were seeded at a density of 50×10^3 cells/well onto clear 96-well plates (PerkinElmer). After 24 h of culture, medium was replaced with IP1 stimulation buffer (10 mM HEPES, 1 mM CaCl2, 0.5 mM MgCl2, 4.2 mM KCl, 146 mM NaCl, 5.5 mM glucose, 50 mM LiCl; 37° C., 5% CO2.). Cells were pre-incubated with the antagonist or vehicle for 30 min prior to the addition of agonist. Cells were then further incubated for 40 min. Stimulation buffer was […]

Data set [2] concerns the target T1, PAR2. As to the kind of experiment: IP1 accumulation assay in HT-29 cells (endogenous PAR2). The class given is cell-based. The settings on record: 2F (300 nM)-induced IP1, HT-29 cells; read-out: HT-29 300 nM 2F pIC50 ± SEM (converted). The method, boiled down: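 KNRK-hPAR2 or HT-29 cells (50×10³/well, 24 h) in LiCl-containing stimulation buffer, pre-incubated with antagonist 30 min at 37 °C, then stimulated 40 min with 2F at 100 or 300 nM (EC80) or 10 μM ATP. IP1 in lysate quantified by HTRF; IC50 from concentration-response.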

Several values for one entry are separate records, joined by “and”; a condition that tells them apart may be missing. Identical values can stand only once. Entries after “also recorded” stand apart in the source; their conditions may differ.

As for `Cc1nc(C(=O)N2CCN(C(=O)c3cn4nc(-c5ccc(F)cc5)cc(C(C)(C)C)c4n3)C(C)(C)C2)n[nH]1` [Compound I-343, (8-(tert-butyl)-6-(4-fluorophenyl)imidazo[1,2-b]pyridazin-2-yl)(2,2-dimethyl-4-(5-methyl-1H-1,2,4-triazole-3-carbonyl)piperazin-1-yl)methanone], the “compliance of the colon (pressure/volume relationship)” value in the data set with mice was “unaffected; also recorded: unchanged”. In addition, the IC50 on PAR2 [1] (read-out: IC50, trypsin-induced IP1 in HEK293 cells) is 0.4 nM; on PAR2 [1] (read-out: pIC50, trypsin-induced IP1 in HEK293 cells (converted)), 0.437 nM; at PAR2 [2], 1.17 nM and 1.1 nM.

(Values after patent US20200383985A1, “Inhibitors of Protease Activated Receptor-2” (Endosome Therapeutics, Inc., priority 2017, published 2020).)
